According to US5112846A, “N-hydroxyamide, N-hydroxythioamide, hydroxyurea, and N-hydroxythiourea derivatives of selected nsaids as antiinflammatory agents” (Warner-Lambert Company, priority 1990, dated 1992):
Read-outs that look alike come from different tables or passages of the source.

Assays:
[1] = target: T1, 5-Lipoxygenase (Rattus norvegicus, UniProt P12527); assay: ARBL whole cell 5-lipoxygenase assay (LTB4 formation in RBL-1 cells, A23187 stimulated); type: cell-based; settings: for IC50: read-out: ARBL IC50 (inhibition of LTB4 formation)
T1 construct: host or cells: RBL-1 rat basophilic leukemia cells
T1 sequence (P12527 1-673): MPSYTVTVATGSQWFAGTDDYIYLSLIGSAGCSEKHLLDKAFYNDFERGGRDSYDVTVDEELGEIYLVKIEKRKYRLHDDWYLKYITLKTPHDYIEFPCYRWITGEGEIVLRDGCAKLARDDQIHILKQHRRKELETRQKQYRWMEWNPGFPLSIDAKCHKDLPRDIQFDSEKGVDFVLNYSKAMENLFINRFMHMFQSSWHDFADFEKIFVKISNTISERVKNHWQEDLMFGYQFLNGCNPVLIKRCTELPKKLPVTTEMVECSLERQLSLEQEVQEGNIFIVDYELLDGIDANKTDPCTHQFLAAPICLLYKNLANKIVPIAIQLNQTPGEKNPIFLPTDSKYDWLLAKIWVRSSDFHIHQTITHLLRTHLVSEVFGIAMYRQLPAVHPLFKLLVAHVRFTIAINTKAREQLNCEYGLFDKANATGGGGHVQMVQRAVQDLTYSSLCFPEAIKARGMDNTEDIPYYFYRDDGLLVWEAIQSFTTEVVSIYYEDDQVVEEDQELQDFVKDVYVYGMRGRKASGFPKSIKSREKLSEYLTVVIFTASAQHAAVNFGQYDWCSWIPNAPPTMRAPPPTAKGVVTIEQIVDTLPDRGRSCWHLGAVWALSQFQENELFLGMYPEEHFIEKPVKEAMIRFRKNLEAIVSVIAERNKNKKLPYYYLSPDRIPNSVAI
Procedure: (§1) ARBL/ARBC Whole Cell 5-Lipoxygenase and Cyclooxygenase Assays
(§2) The rat basophilic leukemia cell line (RBL-1) was obtained from the American Type Culture Collection (Rockville, MD).
(§3) Radioimmunoassay (RIA) kits of LTB4 and PGF2α were obtained from Amersham (Arlington Heights, IL) and Seragen (Boston, MA), respectively.
(§4) RBL-1 cells are grown in suspension culture in Eagle's minimum essential medium supplemented with 12% fetal bovine serum at 37° C. in an incubator supplied with air-5% carbon dioxide. Cells are harvested by centrifugation. They are washed with cold phosphate buffered saline pH 7.4 (PBS; NaCl, 7.1 g; Na2 HPO4, 1.15 g; KH2 PO4, 0.2 g; and KCl, 0.2 g/l). Cells are finally suspended in PBS containing 1.0 mM calcium at a density of 2×10^6 cells/ml. Cells are incubated with and without test agent (in DMSO) (1% DMSO is without effect on arachidonic acid metabolism) for ten minutes at room temperature. Calcium ionophore A23187 (5 μM) is added and cells are incubated for seven minutes at 37° C. The reaction is stopped by chilling the tubes on ice for ten minutes. Cells are separated by centrifugation and the supernatant is stored at -20° C. Aliquots (100 μl) are analyzed for LTB4 and PGF2α using radioimmunoassay kits as provided by the supplier.
(§5) Tables 1-4 contain biochemical data obtained from this whole cell assay either as IC50 s which are calculated as the amount of test compound causing 50% inhibition of LTB4 or PGF2α formation or % inhibition of LTB4 or PGF2α at the indicated amount expressed as μM.

[2] = target: T2, Cyclooxygenase (Rattus norvegicus, UniProt Q63921); assay: ARBC whole cell cyclooxygenase assay (PGF2α formation in RBL-1 cells, A23187 stimulated); type: cell-based; settings: for IC50: read-out: ARBC IC50 (inhibition of PGF2α formation); for inhibition at 32 µM: Table 3, read-out: ARBC % inhibition (N @ 32)
T2 construct: host or cells: RBL-1 rat basophilic leukemia cells
T2 sequence (Q63921 27-602): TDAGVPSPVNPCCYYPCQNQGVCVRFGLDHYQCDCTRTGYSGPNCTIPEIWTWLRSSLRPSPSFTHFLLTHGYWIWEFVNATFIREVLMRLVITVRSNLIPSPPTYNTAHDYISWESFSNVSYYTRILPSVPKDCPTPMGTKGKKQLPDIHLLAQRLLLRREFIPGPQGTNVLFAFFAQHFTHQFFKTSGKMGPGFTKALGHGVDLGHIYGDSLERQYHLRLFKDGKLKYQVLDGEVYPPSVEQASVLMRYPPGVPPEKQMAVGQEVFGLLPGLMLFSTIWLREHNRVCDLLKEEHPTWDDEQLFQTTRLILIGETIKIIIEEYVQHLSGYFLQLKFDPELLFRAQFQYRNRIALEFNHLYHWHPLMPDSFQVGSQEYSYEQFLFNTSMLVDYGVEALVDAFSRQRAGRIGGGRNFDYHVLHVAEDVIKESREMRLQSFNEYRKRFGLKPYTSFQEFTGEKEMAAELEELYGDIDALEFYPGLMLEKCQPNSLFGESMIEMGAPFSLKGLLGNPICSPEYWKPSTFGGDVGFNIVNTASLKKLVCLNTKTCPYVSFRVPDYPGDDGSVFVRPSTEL
Procedure: as §1, §2, §3, §4, §5

[3] = RBL-1 cells, read-out: ARBL % inhibition of LTB4
[4] = RBL-1 cells, read-out: ARBC % inhibition of PGF2α
[5] = RBL-1, Table 1, read-out: ARBC % inhibition (N)
[6] = RBL-1, Table 2, read-out: ARBC % inhibition (N)

ONCc1ccc2c(c1)Cc1ccccc1-2 [Example 1, N-Hydroxy-9H-fluorene-2-methanamine]
inhibition at 16 µM [1, 3]: 97%
inhibition at 16 µM [2, 4]: 76%

CCOC(=O)C(=O)N(O)Cc1ccc2c(c1)Cc1ccccc1-2 [Example 2, (9H-Fluoren-2-ylmethyl)hydroxyamino-oxo-acetic acid, ethyl ester]
inhibition at 16 µM [1, 3]: 96%
inhibition at 16 µM [2, 5]: < 40%

O=C(O)C(=O)N(O)Cc1ccc2c(c1)Cc1ccccc1-2 [Example 3, (9H-Fluoren-2-ylmethyl)hydroxyamino-oxo-acetic acid]
inhibition at 16 µM ([1]; RBL-1, Table 1, read-out: ARBL % inhibition (N)): < 40%
inhibition at 16 µM [2, 5]: < 40%

CC(=O)N(O)Cc1ccc2c(c1)Cc1ccccc1-2 [Example 4, N-(9H-Fluoren-2-ylmethyl)-N-hydroxy-acetamide]
inhibition at 16 µM [1, 3]: 100%
IC50 ([2]; RBL-1 cells): 12000 nM

CC(C)C(=O)N(O)Cc1ccc2c(c1)Cc1ccccc1-2 [Example 5, N-(9H-Fluoren-2-ylmethyl)-N-hydroxy-2-methyl-propanamide]
inhibition at 16 µM [1, 3]: 99%
inhibition at 16 µM [2, 5]: < 40%

CNC(=O)N(O)Cc1ccc2c(c1)Cc1ccccc1-2 [Example 6, N-(9H-Fluoren-2-ylmethyl)-N-hydroxy-N'-methylurea]
inhibition at 16 µM [1, 3]: 100%
inhibition at 16 µM [2, 5]: < 40%

CC(NO)c1ccc2c(c1)Cc1ccccc1-2 (stereo not drawn) [Example 7, N-Hydroxy-α-methyl-9H-fluorene-2-methanamine]
inhibition at 16 µM [1, 3]: 100%
inhibition at 16 µM [2, 4]: 89%

CNC(=O)N(O)C(C)c1ccc2c(c1)Cc1ccccc1-2 (stereo not shown) [Example 8, N-(1-(9H-Fluoren-2-yl)ethyl)-N-hydroxy-N'-methylurea]
IC50 ([1]; RBL-1 cells): 910 nM
inhibition at 16 µM [2, 5]: < 40%

CCNC(=O)N(O)C(C)c1ccc2c(c1)Cc1ccccc1-2 (stereo not shown) [Example 9, N'-Ethyl-N-(1-(9H-fluoren-2-yl)ethyl)-N-hydroxyurea]
inhibition at 16 µM [1, 3]: 100%
inhibition at 16 µM [2, 4]: 49%

CNC(=S)N(O)C(C)c1ccc2c(c1)Cc1ccccc1-2 (stereo not shown) [Example 10, N-(1-(9H-Fluoren-2-yl)ethyl)-N-hydroxy-N'-methylthiourea]
inhibition at 16 µM [1, 3]: 100%
inhibition at 16 µM [2, 4]: 59%

CC(=O)N(O)C(C)c1ccc2c(c1)Cc1ccccc1-2 (stereo not shown) [Example 11, N-(1-(9H-Fluoren-2-yl)ethyl)-N-hydroxy-acetamide]
IC50 ([1]; RBL-1 cells): 760 nM
inhibition at 16 µM [2, 5]: < 40%

CCOC(=O)N(O)C(C)c1ccc2c(c1)Cc1ccccc1-2 (stereo not drawn) [Example 12, N-Hydroxy-alpha-methyl-9H-fluorene-2-methanamine carbamic acid, ethyl ester]
inhibition at 16 µM [1, 3]: 95%
inhibition at 16 µM [2, 4]: 79%

CC(C)C(=O)N(O)C(C)c1ccc2c(c1)Cc1ccccc1-2 (stereo not shown) [Example 13]
inhibition at 16 µM [1, 3]: 90%
inhibition at 16 µM [2, 5]: < 40%

CCNC(=S)N(O)C(C)c1ccc2c(c1)Cc1ccccc1-2 (stereo not shown) [Example 14, N-(1-(9H-Fluoren-2-yl)ethyl)-N-hydroxy-N'-ethylthiourea]
inhibition at 0.25 µM ([1]; at 0.25 μM, RBL-1 cells): 56%
inhibition at 16 µM [2, 5]: < 40%

CC(C)C(=O)N(O)Cc1ccc2c(c1)OCc1ccccc1C2=O [Example 17, N[(6,11-Dihydro-11-oxodibenz[b,el]oxepin-3-yl)methyl]N-hydroxy-2-methylpropanamide]
inhibition at 16 µM [1, 3]: 100%
IC50 ([2]; RBL-1 cells): 5800 nM

CC(=O)N(O)Cc1ccc2c(c1)OCc1ccccc1C2=O [Example 18, N-[(6,11-Dihydro-11-oxodibenz[b,el]oxepin-3-yl)methyl]-N-hydroxyacetamide]
IC50 ([1]; RBL-1 cells): 840 nM
inhibition at 16 µM [2, 6]: < 40%

CCOC(=O)C(=O)N(O)Cc1ccc2c(c1)OCc1ccccc1C2=O [Example 19, Ethyl[[(6,11-Dihydro-11-oxodibenz[b,e]oxepin-3-yl)methyl]hydroxyamino]oxoacetate]
inhibition at 16 µM [1, 3]: 84%
inhibition at 16 µM [2, 6]: < 40%

CNC(=O)N(O)Cc1ccc2c(c1)OCc1ccccc1C2=O [Example 20, N-[(6,11-Dihydro-11-oxodibenz[b,e]oxepin-3-yl)methyl]-N-hydroxy-N'-methylurea]
IC50 ([1]; RBL-1 cells): 510 nM
inhibition at 16 µM [2, 6]: < 40%

CC(=O)N(O)Cc1ccccc1Nc1cccc(C)c1C [Example 47]
IC50 ([1]; RBL-1 cells): 510 nM
IC50 ([2]; RBL-1 cells): 15000 nM

CC(=O)N(O)Cc1ccccc1Nc1c(Cl)cccc1Cl [Example 48, N-[[(2,6-Dichlorophenyl)amino]phenyl]methyl-N-hydroxyacetamide]
IC50 ([1]; RBL-1 cells): 1300 nM
inhibition at 32 µM ([2]; RBL-1): < 40%

CC(=O)N(O)C(C)c1ccccc1Nc1c(Cl)ccc(C)c1Cl (stereo not shown) [Example 53, N-[1-[2-[(2,6-dichloro-3-methylphenyl)amino]phenyl]ethyl]-N-hydroxyacetamide]
IC50 ([1]; RBL-1 cells): 1800 nM
inhibition at 32 µM ([2]; RBL-1): < 40%

COc1ccc2c(c1)c(CN(O)C(C)=O)c(C)n2C(=O)c1ccc(Cl)cc1 [Example 63, N-[[1-(4-Chlorobenzoyl)-5-methoxy-2-methyl-1H-indole-3-yl]methyl]-N-hydroxyacetamide]
IC50 ([2]; RBL-1 cells): 15000 nM

COc1ccc2c(c1)c(CN(O)C(=O)CCC(=O)O)c(C)n2C(=O)c1ccc(Cl)cc1 [Example 66, 4-[[[1-(4-Chlorobenzoyl)-5-methoxy-2-methyl-1H-indol-3-yl]methyl]hydroxyamino]-4-oxo-butanoic acid]
inhibition at 16 µM ([1]; RBL-1, Table 4, read-out: ARBL % inhibition (N @ 16)): < 40%

COC(=O)N(O)Cc1c(C)n(C(=O)c2ccc(Cl)cc2)c2ccc(OC)cc12 [Example 67, [[1-(4-Chlorobenzoyl)-5-methoxy-2-methyl-1H-indol-3-yl]methyl]hydroxycarbamic acid, methyl ester]
IC50 ([2]; RBL-1 cells): 16000 nM

COc1ccc2c(c1)c(CN(O)C(N)=O)c(C)n2C(=O)c1ccc(Cl)cc1 [Example 68, N-(Aminocarbonyl)-1-(4-chlorobenzoyl)-N-hydroxy-5-methoxy-2-methyl-1H-indole-3-methanamine]
inhibition at 16 µM [1, 3]: 98%

CNC(=O)N(O)Cc1c(C)n(C(=O)c2ccc(Cl)cc2)c2ccc(OC)cc12 [Example 69, 1-(4-Chlorobenzoyl)-N-hydroxy-5-methoxy-2-methyl-N-[(methylamino)carbonyl]-1H-indole-3-methanamine]
IC50 ([1]; RBL-1 cells): 2500 nM

CCOC(=O)NC(=O)N(O)Cc1c(C)n(C(=O)c2ccc(Cl)cc2)c2ccc(OC)cc12 [Example 72, [[[[1-(4-Chlorobenzoyl)-5-methoxy-2-methyl-1H-indol-3-yl]methyl]hydroxyamino]carbonyl]carbamic acid, ethyl ester]
inhibition at 16 µM [1, 3]: 98%

CCOC(=O)CNC(=O)N(O)Cc1c(C)n(C(=O)c2ccc(Cl)cc2)c2ccc(OC)cc12 [Example 73, N-[[[[1-(4-Chlorobenzoyl)-5-methoxy-2-methyl-1H-indol-3-yl]methyl]hydroxyamino]carbonyl]glycine, ethyl ester]
inhibition at 16 µM [1, 3]: 100%
